Test system: CAL-51
Assay: normalised response (% of control), CellTox Green; higher = less cell death (100 = DMSO, 0 = benzethonium chloride kill control)
Conditions: incubation time: 72 h
How it was run: (§1)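 A 20 µl suspension of breast cancer cells was seeded into each well of 384-well plates containing compound at 5 concentrations in 10-fold steps over a compound-specific 10,000-fold range. After 72 h incubation, CellTox Green fluorescence (485/520 nm) was read first, and CellTiter-Glo luminescence was read after 10 min at room temperature. Each plate was normalised against 0.1 % DMSO (100) and a positive kill control (0), and each value is the normalised signal at one concentration.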

Row | SMILES | normalised response [%]
1 | Cc1ccc(C(=O)N(CCCN)[C@@H](c2oc3cc(Cl)ccc3c(=O)c2Cc2ccccc2)C(C)C)cc1 (10 nM) | 108
2 | CC(=O)Nc1ccc(C(=O)Nc2ccccc2N)cc1 [Tacedinaline] (100 nM) | 103
3 | NC(=O)Nc1cc(-c2cccc(F)c2)sc1C(=O)N[C@H]1CCCNC1 [AZD7762] (100 nM) | 104
4 | O=C(O)c1ccc(-c2c[nH]c3ncc(-c4ccccc4)cc23)cc1C1CCCC1 (1000 nM) | 93.6
5 | CCCCCCCCCCCCCCCCCCOP(=O)([O-])OC1CC[N+](C)(C)CC1 [Perifosine] (250 nM) | 110
6 | CCC(C)(C)C(=O)O[C@H]1C[C@@H](C)C=C2C=C[C@H](C)[C@H](CC[C@@H]3C[C@@H](O)CC(=O)O3)[C@H]21 [Simvastatin] (1000 nM) | 111
7 | N.N.[Cl][Pt][Cl] [Cisplatin] (100 nM) | 103
8 | N#CCNC(=O)c1ccc(-c2ccnc(Nc3ccc(N4CCOCC4)cc3)n2)cc1 [Momelotinib] (1000 nM) | 117
9 | C[C@@H](Oc1cc(-c2cnn(C3CCNCC3)c2)cnc1N)c1c(Cl)ccc(F)c1Cl [Crizotinib] (100 nM) | 111

Test system: MDA-MB-453
Assay: as above
Conditions: incubation time: 72 h
How it was run: as §1

Row | SMILES | normalised response [%]
10 | Cc1ccc(C(=O)N(CCCN)[C@@H](c2oc3cc(Cl)ccc3c(=O)c2Cc2ccccc2)C(C)C)cc1 (10 nM) | 102
11 | CC(=O)Nc1ccc(C(=O)Nc2ccccc2N)cc1 [Tacedinaline] (100 nM) | 105
12 | NC(=O)Nc1cc(-c2cccc(F)c2)sc1C(=O)N[C@H]1CCCNC1 [AZD7762] (100 nM) | 101
13 | O=C(O)c1ccc(-c2c[nH]c3ncc(-c4ccccc4)cc23)cc1C1CCCC1 (1000 nM) | 96.7
14 | CCCCCCCCCCCCCCCCCCOP(=O)([O-])OC1CC[N+](C)(C)CC1 [Perifosine] (250 nM) | 104
15 | CCC(C)(C)C(=O)O[C@H]1C[C@@H](C)C=C2C=C[C@H](C)[C@H](CC[C@@H]3C[C@@H](O)CC(=O)O3)[C@H]21 [Simvastatin] (1000 nM) | 106
16 | N.N.[Cl][Pt][Cl] [Cisplatin] (100 nM) | 110
17 | N#CCNC(=O)c1ccc(-c2ccnc(Nc3ccc(N4CCOCC4)cc3)n2)cc1 [Momelotinib] (1000 nM) | 108
18 | C[C@@H](Oc1cc(-c2cnn(C3CCNCC3)c2)cnc1N)c1c(Cl)ccc(F)c1Cl [Crizotinib] (100 nM) | 90.9

Test system: HDQ-P1
Assay: as above
Conditions: incubation time: 72 h
How it was run: as §1

Row | SMILES | normalised response [%]
19 | Cc1ccc(C(=O)N(CCCN)[C@@H](c2oc3cc(Cl)ccc3c(=O)c2Cc2ccccc2)C(C)C)cc1 (10 nM) | 85.7
20 | CC(=O)Nc1ccc(C(=O)Nc2ccccc2N)cc1 [Tacedinaline] (100 nM) | 76.9
21 | NC(=O)Nc1cc(-c2cccc(F)c2)sc1C(=O)N[C@H]1CCCNC1 [AZD7762] (100 nM) | 103
22 | O=C(O)c1ccc(-c2c[nH]c3ncc(-c4ccccc4)cc23)cc1C1CCCC1 (1000 nM) | 109
23 | CCCCCCCCCCCCCCCCCCOP(=O)([O-])OC1CC[N+](C)(C)CC1 [Perifosine] (250 nM) | 115
24 | CCC(C)(C)C(=O)O[C@H]1C[C@@H](C)C=C2C=C[C@H](C)[C@H](CC[C@@H]3C[C@@H](O)CC(=O)O3)[C@H]21 [Simvastatin] (1000 nM) | 81.5
25 | N.N.[Cl][Pt][Cl] [Cisplatin] (100 nM) | 118
26 | N#CCNC(=O)c1ccc(-c2ccnc(Nc3ccc(N4CCOCC4)cc3)n2)cc1 [Momelotinib] (1000 nM) | 111
27 | C[C@@H](Oc1cc(-c2cnn(C3CCNCC3)c2)cnc1N)c1c(Cl)ccc(F)c1Cl [Crizotinib] (100 nM) | 95.8

Test system: BT-549
Assay: as above
Conditions: incubation time: 72 h
How it was run: as §1

Row | SMILES | normalised response [%]
28 | Cc1ccc(C(=O)N(CCCN)[C@@H](c2oc3cc(Cl)ccc3c(=O)c2Cc2ccccc2)C(C)C)cc1 (10 nM) | 88
29 | CC(=O)Nc1ccc(C(=O)Nc2ccccc2N)cc1 [Tacedinaline] (100 nM) | 117
30 | NC(=O)Nc1cc(-c2cccc(F)c2)sc1C(=O)N[C@H]1CCCNC1 [AZD7762] (100 nM) | 105
31 | O=C(O)c1ccc(-c2c[nH]c3ncc(-c4ccccc4)cc23)cc1C1CCCC1 (1000 nM) | 92.9
32 | CCCCCCCCCCCCCCCCCCOP(=O)([O-])OC1CC[N+](C)(C)CC1 [Perifosine] (250 nM) | 88.6
33 | CCC(C)(C)C(=O)O[C@H]1C[C@@H](C)C=C2C=C[C@H](C)[C@H](CC[C@@H]3C[C@@H](O)CC(=O)O3)[C@H]21 [Simvastatin] (1000 nM) | 94.5
34 | N.N.[Cl][Pt][Cl] [Cisplatin] (100 nM) | 80.2
35 | N#CCNC(=O)c1ccc(-c2ccnc(Nc3ccc(N4CCOCC4)cc3)n2)cc1 [Momelotinib] (1000 nM) | 96.5
36 | C[C@@H](Oc1cc(-c2cnn(C3CCNCC3)c2)cnc1N)c1c(Cl)ccc(F)c1Cl [Crizotinib] (100 nM) | 140

Test system: DU-4475
Assay: as above
Conditions: incubation time: 72 h
How it was run: as §1

Row | SMILES | normalised response [%]
37 | Cc1ccc(C(=O)N(CCCN)[C@@H](c2oc3cc(Cl)ccc3c(=O)c2Cc2ccccc2)C(C)C)cc1 (10 nM) | 104
38 | CC(=O)Nc1ccc(C(=O)Nc2ccccc2N)cc1 [Tacedinaline] (100 nM) | 99.2
39 | NC(=O)Nc1cc(-c2cccc(F)c2)sc1C(=O)N[C@H]1CCCNC1 [AZD7762] (100 nM) | 100
40 | O=C(O)c1ccc(-c2c[nH]c3ncc(-c4ccccc4)cc23)cc1C1CCCC1 (1000 nM) | 96.3
41 | CCCCCCCCCCCCCCCCCCOP(=O)([O-])OC1CC[N+](C)(C)CC1 [Perifosine] (250 nM) | 101
42 | N.N.[Cl][Pt][Cl] [Cisplatin] (100 nM) | 107
43 | N#CCNC(=O)c1ccc(-c2ccnc(Nc3ccc(N4CCOCC4)cc3)n2)cc1 [Momelotinib] (1000 nM) | 97.7
44 | C[C@@H](Oc1cc(-c2cnn(C3CCNCC3)c2)cnc1N)c1c(Cl)ccc(F)c1Cl [Crizotinib] (100 nM) | 105

Test system: HCC1937
Assay: as above
Conditions: incubation time: 72 h
How it was run: as §1

Row | SMILES | normalised response [%]
45 | CC(=O)Nc1ccc(C(=O)Nc2ccccc2N)cc1 [Tacedinaline] (100 nM) | 115
46 | NC(=O)Nc1cc(-c2cccc(F)c2)sc1C(=O)N[C@H]1CCCNC1 [AZD7762] (100 nM) | 125
47 | O=C(O)c1ccc(-c2c[nH]c3ncc(-c4ccccc4)cc23)cc1C1CCCC1 (1000 nM) | 100
48 | CCCCCCCCCCCCCCCCCCOP(=O)([O-])OC1CC[N+](C)(C)CC1 [Perifosine] (250 nM) | 107
49 | CCC(C)(C)C(=O)O[C@H]1C[C@@H](C)C=C2C=C[C@H](C)[C@H](CC[C@@H]3C[C@@H](O)CC(=O)O3)[C@H]21 [Simvastatin] (1000 nM) | 78.2
50 | C[C@@H](Oc1cc(-c2cnn(C3CCNCC3)c2)cnc1N)c1c(Cl)ccc(F)c1Cl [Crizotinib] (100 nM) | 79.2

Test system: Hs578T
Assay: as above
Conditions: incubation time: 72 h
How it was run: as §1

Row | SMILES | normalised response [%]
51 | Cc1ccc(C(=O)N(CCCN)[C@@H](c2oc3cc(Cl)ccc3c(=O)c2Cc2ccccc2)C(C)C)cc1 (10 nM) | 103
52 | CC(=O)Nc1ccc(C(=O)Nc2ccccc2N)cc1 [Tacedinaline] (100 nM) | 92.4
53 | NC(=O)Nc1cc(-c2cccc(F)c2)sc1C(=O)N[C@H]1CCCNC1 [AZD7762] (100 nM) | 64.1
54 | O=C(O)c1ccc(-c2c[nH]c3ncc(-c4ccccc4)cc23)cc1C1CCCC1 (1000 nM) | 92.2
55 | CCCCCCCCCCCCCCCCCCOP(=O)([O-])OC1CC[N+](C)(C)CC1 [Perifosine] (250 nM) | 97.2
56 | CCC(C)(C)C(=O)O[C@H]1C[C@@H](C)C=C2C=C[C@H](C)[C@H](CC[C@@H]3C[C@@H](O)CC(=O)O3)[C@H]21 [Simvastatin] (1000 nM) | 77.5
57 | N.N.[Cl][Pt][Cl] [Cisplatin] (100 nM) | 85.4
58 | N#CCNC(=O)c1ccc(-c2ccnc(Nc3ccc(N4CCOCC4)cc3)n2)cc1 [Momelotinib] (1000 nM) | 99.4

Test system: MCF-10A
Assay: as above
Conditions: incubation time: 72 h
How it was run: as §1

Row | SMILES | normalised response [%]
59 | Cc1ccc(C(=O)N(CCCN)[C@@H](c2oc3cc(Cl)ccc3c(=O)c2Cc2ccccc2)C(C)C)cc1 (10 nM) | 112
60 | O=C(O)c1ccc(-c2c[nH]c3ncc(-c4ccccc4)cc23)cc1C1CCCC1 (1000 nM) | 103
61 | CCCCCCCCCCCCCCCCCCOP(=O)([O-])OC1CC[N+](C)(C)CC1 [Perifosine] (250 nM) | 102
62 | CCC(C)(C)C(=O)O[C@H]1C[C@@H](C)C=C2C=C[C@H](C)[C@H](CC[C@@H]3C[C@@H](O)CC(=O)O3)[C@H]21 [Simvastatin] (1000 nM) | 93.2
63 | N.N.[Cl][Pt][Cl] [Cisplatin] (100 nM) | -220
64 | N#CCNC(=O)c1ccc(-c2ccnc(Nc3ccc(N4CCOCC4)cc3)n2)cc1 [Momelotinib] (1000 nM) | 108
65 | C[C@@H](Oc1cc(-c2cnn(C3CCNCC3)c2)cnc1N)c1c(Cl)ccc(F)c1Cl [Crizotinib] (100 nM) | 105

Test system: MDA-MB-231
Assay: as above
Conditions: incubation time: 72 h
How it was run: as §1

Row | SMILES | normalised response [%]
66 | Cc1ccc(C(=O)N(CCCN)[C@@H](c2oc3cc(Cl)ccc3c(=O)c2Cc2ccccc2)C(C)C)cc1 (10 nM) | 94.4
67 | CC(=O)Nc1ccc(C(=O)Nc2ccccc2N)cc1 [Tacedinaline] (100 nM) | 108
68 | NC(=O)Nc1cc(-c2cccc(F)c2)sc1C(=O)N[C@H]1CCCNC1 [AZD7762] (100 nM) | 105
69 | O=C(O)c1ccc(-c2c[nH]c3ncc(-c4ccccc4)cc23)cc1C1CCCC1 (1000 nM) | 86.1
70 | CCCCCCCCCCCCCCCCCCOP(=O)([O-])OC1CC[N+](C)(C)CC1 [Perifosine] (250 nM) | 79.8
71 | CCC(C)(C)C(=O)O[C@H]1C[C@@H](C)C=C2C=C[C@H](C)[C@H](CC[C@@H]3C[C@@H](O)CC(=O)O3)[C@H]21 [Simvastatin] (1000 nM) | 86.9
72 | N.N.[Cl][Pt][Cl] [Cisplatin] (100 nM) | 74
73 | N#CCNC(=O)c1ccc(-c2ccnc(Nc3ccc(N4CCOCC4)cc3)n2)cc1 [Momelotinib] (1000 nM) | 100
74 | C[C@@H](Oc1cc(-c2cnn(C3CCNCC3)c2)cnc1N)c1c(Cl)ccc(F)c1Cl [Crizotinib] (100 nM) | 123

Test system: CAL-85-1
Assay: as above
Conditions: incubation time: 72 h
How it was run: as §1

Row | SMILES | normalised response [%]
75 | Cc1ccc(C(=O)N(CCCN)[C@@H](c2oc3cc(Cl)ccc3c(=O)c2Cc2ccccc2)C(C)C)cc1 (10 nM) | 108
76 | CC(=O)Nc1ccc(C(=O)Nc2ccccc2N)cc1 [Tacedinaline] (100 nM) | 107
77 | NC(=O)Nc1cc(-c2cccc(F)c2)sc1C(=O)N[C@H]1CCCNC1 [AZD7762] (100 nM) | 36.1
78 | O=C(O)c1ccc(-c2c[nH]c3ncc(-c4ccccc4)cc23)cc1C1CCCC1 (1000 nM) | 108
79 | CCCCCCCCCCCCCCCCCCOP(=O)([O-])OC1CC[N+](C)(C)CC1 [Perifosine] (250 nM) | 107
